# Values quoted from earlier work in paper PMC3711574 (Biochemistry, 2012).
# Test system: BHRF-1
# Details: ref [67]
sequence,measurement,value
MRPEIWIAQELRRIGDEFNAYYARRV [Bim],Binding to BHRF-1,binds
